Source: patent publication US7135457B1, “Random peptides that bind to gastro-intestinal tract (GIT) transport receptors and related methods” (Cytogen Corporation, priority 1997, dated 2006)
Peptide text beside a SMILES is read from it. * marks the point of attachment. Dansyl = CN(C)c1cccc2c(S(=O)(=O)*)cccc12

System: P100 membrane fractions derived from Caco-2 cells
Test: Dansylated peptide ELISA on P100: PAX2 and HAX42 peptides relative binding
Description: The peptides and proteins were analyzed by a dansylated peptide ELISA method in which 96 well plates were coated overnight at 4° C. with 100 μl/well coating protein (normally 100 μg/ml P100 membrane fraction) in 0.05M carbonate buffer pH9.6. Nonspecific binding was blocked using 200 μl/well, 2% Marvel/PBS for 2 hours at 37° C. prior to incubation with dansylated peptides. The plates were washed three times with PBS/0.05% Tween 20 and after each subsequent incubation step. […] A buffer blank control was included to ensure that background binding to plastic was not due to the antibodies used in the assay system. […] The plates were then incubated with an anti-mouse λ-HRP conjugated antibody (Southern Biotech 1060-05) at a 1:10,000 dilution in blocking solution, 100 μl/well for 1 hour at room temperature. Plates were developed using 75 μl/well Bionostics TMB substrate and incubated for approximately 10 minutes. The developing reaction was stopped using Bionostics Red Stop solution (25 μl/well), and the optical density of the plates was read at 650 nm.

[1] = HAX42 peptides, ratio to ZElan021 (arbitrary 1.00)
[2] = HAX42 peptides, ratio to ZElan021 (arbitrary 1.00), first 50 μg/ml column
[3] = HAX42 peptides, ratio to ZElan021 (arbitrary 1.00), second 50 μg/ml column

SMILES	Binding value at 20 μg/ml [1]	Binding value at 50 μg/ml [2]	Binding value at 50 μg/ml [3]	Binding value at 20 μg/ml (PAX2 peptides, ratio to ZElan021 (HAX42 = 1.00), first 20 μg/ml column)	Binding value at 50 μg/ml (PAX2 peptides, ratio to ZElan021 (HAX42 = 1.00), first 50 μg/ml column)	Binding value at 50 μg/ml (PAX2 peptides, ratio to ZElan021 (HAX42 = 1.00), second 50 μg/ml column)
CC[C@H](C)[C@H](NC(=O)[C@H](C)NC(=O)[C@H](CO)NC(=O)[C@@H]1CCCN1C(=O)[C@H](CCCNC(=N)N)NC(=O)[C@H](CCCNC(=N)N)NC(=O)[C@H](CCCNC(=N)N)NC(=O)[C@H](CC(N)=O)NC(=O)[C@H](Cc1ccccc1)NC(=O)[C@@H](NC(=O)[C@H](CCCCN)NC(=O)[C@H](CCCNC(=N)N)NC(=O)CNC(=O)[C@@H](NC(=O)[C@H](CO)NC(=O)[C@H](CC(N)=O)NC(=O)CNC(=O)[C@H](CC(N)=O)NC(=O)CNC(=O)[C@H](CS)NC(=O)[C@H](CS)NC(=O)[C@H](CC(N)=O)NC(=O)[C@H](Cc1ccc(O)cc1)NC(=O)[C@H](CC(=O)O)NC(=O)CNC(=O)[C@@H](N)CCCCNS(=O)(=O)c1cccc2c(N(C)C)cccc12)[C@@H](C)O)C(C)C)C(=O)N1CCC[C@H]1C(=O)N[C@H](C(N)=O)[C@@H](C)O [ZElan061] (H-K(Dansyl)GDYNCCGNGNSTGRKVFNRRRPSAIPT-NH2)	0.20	0.60	0.38			
CC(C)C[C@H](NC(=O)[C@H](C)NC(=O)[C@H](Cc1c[nH]cn1)NC(=O)[C@H](CC(=O)O)NC(=O)[C@H](CO)NC(=O)[C@@H](N)CCCCNS(=O)(=O)c1cccc2c(N(C)C)cccc12)C(=O)NCC(=O)N[C@H](C(=O)N[C@@H](CC(N)=O)C(=O)N[C@@H](CC(C)C)C(=O)N[C@@H](CCCNC(=N)N)C(=O)N[C@@H](CO)C(=O)N[C@@H](CC(=O)O)C(=O)N[C@@H](CC(N)=O)C(=O)N[C@@H](C)C(=O)N[C@@H](CCCCN)C(=O)N[C@@H](CCC(=O)O)C(=O)N1CCC[C@H]1C(=O)NCC(N)=O)[C@@H](C)O [ZElan062] (H-K(Dansyl)SDHALGTNLRSDNAKEPG-NH2)	0.11	0.42	0.34			
CC[C@H](C)[C@H](NC(=O)[C@H](C)NC(=O)[C@H](CO)NC(=O)[C@@H]1CCCN1C(=O)[C@H](CCCNC(=N)N)NC(=O)[C@H](CCCNC(=N)N)NC(=O)[C@H](CC(N)=O)NC(=O)[C@H](Cc1ccccc1)NC(=O)[C@@H](NC(=O)[C@H](CCCCN)NC(=O)[C@H](CCCNC(=N)N)NC(=O)CNC(=O)[C@@H](NC(=O)[C@H](CO)NC(=O)[C@H](CC(N)=O)NC(=O)CNC(=O)[C@H](CC(N)=O)NC(=O)CNC(=O)[C@H](CS)NC(=O)[C@H](CS)NC(=O)[C@H](CC(N)=O)NC(=O)[C@H](Cc1ccc(O)cc1)NC(=O)[C@H](CC(=O)O)NC(=O)CNC(=O)[C@@H]1CCCN1C(=O)[C@@H](N)CCCCNS(=O)(=O)c1cccc2c(N(C)C)cccc12)[C@@H](C)O)C(C)C)C(=O)N1CCC[C@H]1C(=O)N[C@H](C(N)=O)[C@@H](C)O [ZElan072] (H-K(Dansyl)PGDYNCCGNGNSTGRKVFNRRPSAIPT-NH2)	0.83	0.61	0.88			
CC(C)C[C@H](NC(=O)[C@H](CCCNC(=N)N)NC(=O)[C@H](CCCNC(=N)N)NC(=O)[C@H](CC(N)=O)NC(=O)[C@H](Cc1c[nH]cn1)NC(=O)[C@H](CO)NC(=O)[C@H](CO)NC(=O)[C@@H](N)CCCCNS(=O)(=O)c1cccc2c(N(C)C)cccc12)C(=O)N[C@@H](CCCNC(=N)N)C(=O)N[C@H](C(=O)N[C@@H](C)C(N)=O)[C@@H](C)O [ZElan082] (H-K(Dansyl)SSHNRRLRTA-NH2)				0.00	0.92	0.40
CC(C)[C@H](NC(=O)[C@H](CCCCN)NC(=O)[C@H](CCCNC(=N)N)NC(=O)[C@@H](N)CCCCNS(=O)(=O)c1cccc2c(N(C)C)cccc12)C(=O)N[C@@H](Cc1ccccc1)C(=O)N[C@@H](CC(N)=O)C(=O)N[C@@H](CCCNC(=N)N)C(=O)N[C@@H](CCCNC(=N)N)C(=O)N[C@@H](CCCNC(=N)N)C(=O)N1CCC[C@H]1C(=O)N[C@@H](CO)C(N)=O [ZElan065] (H-K(Dansyl)RKVFNRRRPS-NH2)	0.00	0.54	0.30			
